# Reference: patent publication US20260193244A1 (Protego Biopharma, Inc., priority 2022, published 2026)
# Test system: IRE1-XBP1s (HEK293 T-REx cells stably expressing the XBP1-RLuc splicing reporter)
# Test: IRE1-XBP1s activation Assay (XBP1-RLuc splicing reporter, luminescence relative to thapsigargin, with or without IRE1 inhibitor 4μ8C)
# Assay type: cell-based
# Settings: 18 h, compound 10 μM, luminescence as percentage signal relative to thapsigargin (Tg) (500 nM, 18 h)
# Procedure: IRE1-XBP1s activation Assay: HEK293 T-REx cells stably expressing the XBP1-RLuc splicing reporter were treated with an IRE1-XBP1s activator provided herein (10 μM) in the presence or absence of the IRE1 active site inhibitor 4μ8C (32 μM) for 18 h. Luminescence was shown as the percentage signal relative to thapsigargin (Tg) (500 nM, 18 h).
row,Structure (SMILES),activation at 10 µM [%]
1,"Cc1ccc(OCCN(C)C(=O)Cn2cc(NC(=O)C3CC(Oc4ccncc4)C3)cn2)cc1 (stereo not shown) [Compound 139, N-(1-(2-(methyl (2-(p-tolyloxy)ethyl)amino)-2-oxoethyl)-1H-pyrazol-4-yl)-3-(pyridin-4-yloxy)cyclobutane-1-carboxamide]",≥ 50
2,Cc1ccc(OCCN(C)C(=O)Cn2cc(NC(=O)C3CC(Oc4ccccn4)C3)cn2)cc1 (stereo not shown) [Compound 140],≥ 50
3,Cc1ccc(OCCN(C)C(=O)Cn2cc(NC(=O)C3CC(Oc4ccncc4)CCO3)cn2)cc1 (stereo not shown) [Compound 141],< 30
4,Cc1ccc(OCCN(C)C(=O)Cn2cc(NC(=O)C3CC(Oc4cccc(C)n4)C3)cn2)cc1 (stereo not shown) [Compound 142],< 30
5,Cc1ccc(OC2CCC23CN(C(=O)Cn2cc(NC(=O)C4CC(Oc5ccncc5)C4)cn2)C3)cc1 (stereo not shown) [Compound 144],≥ 50
6,O=C(Cn1cc(NC(=O)[C@H]2C[C@H](Oc3ccccn3)C2)cn1)N1CCC[C@H](Oc2ccc(C(F)(F)F)cn2)C1 [Compound 145],< 30
7,"Cc1ccc(O[C@H]2CCCN(C(=O)Cn3cc(NC(=O)COc4ccccc4)cn3)C2)cc1 [Compound 146, N-[1-[2-[(3S)-3-(4-methylphenoxy)-1-piperidyl]-2-oxo-ethyl]pyrazol-4-yl]-2-phenoxy-acetamide]",< 30
8,Cc1ccc(O[C@H]2CCCN(C(=O)Cn3cc(NC(=O)C4COc5ccccc5O4)cn3)C2)cc1 (stereo partly shown) [Compound 147],< 30
9,Cc1ccc(O[C@H]2CCCN(C(=O)Cn3cc(NC(=O)COc4cccnc4)cn3)C2)cc1 [Compound 149],< 30
10,Cc1ccc(O[C@H]2CCCN(C(=O)Cn3cc(NC(=O)COc4ccccn4)cn3)C2)cc1 [Compound 150],< 30
11,Cc1ccc(O[C@H]2CCCN(C(=O)Cn3cc(NC(=O)C4CC(Oc5cccc(C)n5)C4)cn3)C2)cc1 (stereo partly shown) [Compound 151],< 30
12,Cc1ccc(O[C@H]2CCCN(C(=O)Cn3cc(NC(=O)C4CC(Oc5ccncc5)C4)cn3)C2)cc1 (stereo partly shown) [Compound 152],≥ 50
13,Cc1ccc(OCCN(C)C(=O)Cn2cc(NC(=O)c3nc4ccccc4o3)cn2)cc1 [Compound 153],30 to 50
14,Cc1ccc(OCCN(C)C(=O)Cn2cc(NC(=O)C3COc4ccccc4O3)cn2)cc1 (stereo not shown) [Compound 154],≥ 50
15,Cc1ccc(O[C@H]2CCCN(C(=O)Cn3cc(NC(=O)C4COc5ccccc5N4)cn3)C2)cc1 (stereo partly shown) [Compound 155],< 30
16,Cc1ccc(OCCN(C)C(=O)Cn2cc(NC(=O)[C@@H]3COc4ccccc4O3)cn2)cc1 [Compound 156],< 30
17,COc1ncc(Cl)cc1NCCC(=O)Nc1cnn(CC(=O)N2CCC[C@H](Oc3ccc(C)cc3)C2)c1 [Compound 157],≥ 50
18,COc1ncc(Cl)cc1NCCC(=O)Nc1cnn(CC(=O)N2CCC[C@@H](Oc3ccc(C)cc3)C2)c1 [Compound 158],< 30
19,"Cc1ccc(O[C@H]2CCCN(C(=O)Cn3cc(NC(=O)CCOc4c(F)ccnc4C(C)C)cn3)C2)cc1 [Compound 159, (S)-3-((4-fluoro-2-isopropylpyridine-3-yl)oxy)-N-(1-(2-oxo-2-(3-(p-tolyloxy)piperidin-1-yl)ethyl)-1H-pyrazol-4-yl)propanamide]",≥ 50
20,CC(C)c1cncc(F)c1OCCC(=O)Nc1cnn(CC(=O)N2CCC[C@H](Oc3ccc(OC(F)(F)F)cn3)C2)c1 [Compound 160],30 to 50
21,CC(C)c1cncc(F)c1OCCC(=O)Nc1cnn(CC(=O)N2CCC[C@H](Oc3ccc(C(F)(F)F)cn3)C2)c1 [Compound 161],≥ 50
22,Cc1ccc(OCCN(C)C(=O)Cn2cc(NC(=O)[C@H]3C[C@H](Oc4c(F)cncc4C(C)C)C3)cn2)cc1 [Compound 162],< 30
23,Cc1ccc(OC2CCC23CN(C(=O)Cn2cc(NC(=O)C4CC(Oc5c(F)cncc5C(C)C)C4)cn2)C3)cc1 (stereo not shown) [Compound 163],≥ 50
24,"Cc1ccc(O[C@H]2CCCN(C(=O)Cn3cc(NC(=O)CCOc4ncncc4N)cn3)C2)cc1 [Compound 164, (S)-3-((5-aminopyrimidin-4-yl)oxy)-N-(1-(2-oxo-2-(3-(p-tolyloxy)piperidin-1-yl)ethyl)-1H-pyrazol-4-yl)propanamide]",≥ 50
25,Cc1ccc(O[C@H]2CCCN(C(=O)Cn3cc(NC(=O)CCOc4c(Br)cncc4[N+](=O)[O-])cn3)C2)cc1 [Compound 165],≥ 50
26,Cc1ccc(OCCN(C)C(=O)Cn2cc(NC(=O)C3CCCC3Nc3ccnc(F)n3)cn2)cc1 (stereo not shown) [Compound 166],< 30
27,Cc1ccc(OCCN(C)C(=O)Cn2cc(NC(=O)C3CCC3Nc3ccnc(F)n3)cn2)cc1 (stereo not shown) [Compound 167],30 to 50
28,"Cc1ccc(OCCN(C)C(=O)Cn2cc(NC(=O)C34CC(Nc5ncc(F)cn5)(C3)C4)cn2)cc1 [Compound 169, 3-[(5-fluoropyrimidin-2-yl)amino]-N-[1-[2-[methyl-[2-(4-methylphenoxy)ethyl]amino]-2-oxo-ethyl]pyrazol-4-yl]bicyclo[1.1.1]pentane-1-carboxamide]",< 30

row,Structure (SMILES),activation at 10 µM [%]
1,Cc1ccc(OCCN(C)C(=O)Cn2cc(NC(=O)C3CC(Nc4ncc(F)cn4)C3)cn2)cc1 (stereo not shown) [Compound 170],< 30
2,"Cc1ccc(OC2CCCCN(C(=O)Cn3cc(NC(=O)CCNc4ccnc(F)n4)cn3)C2)cc1 (stereo not shown) [Compound 171, 3-[(2-fluoropyrimidin-4-yl)amino]-N-[1-[2-[3-(4-methylphenoxy)azepan-1-yl]-2-oxo-ethyl]pyrazol-4-yl]propanamide]",< 30
3,Cc1ccc(OC2CCCN(C(=O)Cn3cc(NC(=O)CCNc4ccnc(F)n4)cn3)CC2)cc1 (stereo not shown) [Compound 172],< 30
4,Cc1c(F)cc(O[C@@H]2CCCN(C(=O)Cn3cc(NC(=O)CCNc4ccnc(F)n4)cn3)C2)cc1F [Compound 173],30 to 50
5,Cc1ccc(OC2CC3CC2N(C(=O)Cn2cc(NC(=O)CCNc4ccnc(F)n4)cn2)C3)cc1 (stereo not shown) [Compound 174],< 30
6,Cc1ccc(OC2CCC3(C2)CN(C(=O)Cn2cc(NC(=O)CCNc4ccnc(F)n4)cn2)C3)cc1 (stereo not shown) [Compound 175],< 30
7,Cc1ccc(O[C@@H]2CCCN(C(=O)Cn3cc(NC(=O)CCNc4ccnc(F)n4)cn3)C2)cc1 [Compound 176],30 to 50
8,Cc1ccc(OC2CCC23CN(C(=O)Cn2cc(NC(=O)CCNc4ccnc(F)n4)cn2)C3)cc1 (stereo not shown) [Compound 177],≥ 50
9,Cc1ccc(O[C@H]2CCCN(C(=O)Cn3cc(NC(=O)CCNc4ccnc(F)n4)cn3)C2)cc1 [Compound 178],≥ 50
10,O=C(CCNc1ccnc(F)n1)Nc1cnn(CC(=O)N2CCC[C@H](Oc3ccc(C(F)F)cc3)C2)c1 [Compound 179],≥ 50
11,Cc1c(F)cc(O[C@H]2CCCN(C(=O)Cn3cc(NC(=O)CCNc4ccnc(F)n4)cn3)C2)cc1F [Compound 180],≥ 50
12,Cc1ccc(OC2CC3(C2)CN(C(=O)Cn2cc(NC(=O)CCNc4ccnc(F)n4)cn2)C3)cc1 [Compound 181],< 30
13,Cc1ccc(O[C@H]2CCCN(C(=O)Cn3cc(NC(=O)CCNc4c(F)cncc4Cl)cn3)C2)cc1 [Compound 183],≥ 50
14,Cc1ccc(O[C@@H]2CCCN(C(=O)Cn3cc(NC(=O)CCNc4c(F)cncc4Cl)cn3)C2)cc1 [Compound 184],≥ 50
15,Cc1ccc(O[C@H]2CCCN(C(=O)Cn3cc(NC(=O)[C@@H]4COc5ccccc5O4)cn3)C2)cc1 [Compound 185],< 30
16,O=C(CCNc1ccnc(F)n1)Nc1cnn(CC(=O)N2CCC[C@@H](Oc3ccc(C(F)F)cc3)C2)c1 [Compound 187],< 30
17,"O=C(Nc1cnn(CC(=O)N2CCC[C@H](Oc3ccc(C(F)(F)F)cn3)C2)c1)[C@H]1COc2ccccc2O1 [Compound 188, (R)—N-(1-(2-oxo-2-((S)-3-((5-(trifluoromethyl)pyridin-2-yl)oxy)piperidin-1-yl)ethyl)-1H-pyrazol-4-yl)-2,3-dihydrobenzo[b][1, 4]dioxine-2-carboxamide]",< 30
18,O=C(Nc1cnn(CC(=O)N2CCC[C@H](Oc3ccc(C(F)(F)F)cn3)C2)c1)[C@@H]1COc2ccccc2O1 [Compound 189],< 30
19,CN(CCOc1ccc(C(F)(F)F)cn1)C(=O)Cn1cc(NC(=O)C2CNc3ccccc3O2)cn1 (stereo not shown) [Compound 191],< 30
20,CN(CCOc1ccc(C(F)(F)F)cn1)C(=O)Cn1cc(NC(=O)[C@H]2COc3ccccc3O2)cn1 [Compound 192],30 to 50
21,Cc1ccc(OC2CCC23CN(C(=O)Cn2cc(NC(=O)C4CNc5ccccc5O4)cn2)C3)cc1 (stereo not shown) [Compound 193],< 30
22,"Cc1ccc(OC2CCC23CCN(C(=O)Cn2cc(NC(=O)CCOc4cccc(C)n4)cn2)C3)cc1 (stereo not shown) [Compound 195, 3-((6-methylpyridin-2-yl)oxy)-N-(1-(2-oxo-2-(1-(p-tolyloxy)-6-azaspiro[3.4]octan-6-yl)ethyl)-1H-pyrazol-4-yl)propanamide]",≥ 50
23,Cc1ccc(OC2CCCC23CN(C(=O)Cn2cc(NC(=O)CCOc4cccc(C)n4)cn2)C3)cc1 (stereo not shown) [Compound 196],≥ 50
24,Cc1ccc(OC2CCC23CN(C(=O)Cn2cc(NC(=O)C4COc5ccccc5O4)cn2)C3)cc1 (stereo not shown) [Compound 197],< 30
25,"Cc1ccc(OC2CCCC23CN(C(=O)Cn2cc(NC(=O)C4CNc5ccccc5O4)cn2)C3)cc1 (stereo not shown) [Compound 198, N-(1-(2-oxo-2-(5-(p-tolyloxy)-2-azaspiro[3.4]octan-2-yl)ethyl)-1H-pyrazol-4-yl)-3,4-dihydro-2H-benzo[b][1, 4]oxazine-2-carboxamide]",< 30
26,Cc1ccc(OC2CCCC23CN(C(=O)Cn2cc(NC(=O)C4COc5ccccc5O4)cn2)C3)cc1 (stereo not shown) [Compound 199],< 30
27,[2H]C([2H])([2H])c1ccc(OCCN(C)C(=O)Cn2cc(NC(=O)C3COc4ccccc4O3)cn2)cc1 (stereo not shown) [Compound 200],≥ 50
